Laboratory results: patent EP0235408B1, “Pharmaceutical composition and treatment” (THE UNIVERSITY OF TORONTO I[…], priority 1986, dated 1987)
Values joined by “and” are separate entries in the source; they are usually repeats but may differ in a detail not shown here. Identical values can stand only once. Counter-ions that a name gives are not always drawn. Marks after values point to notes of the source that are not given here.

Columns and labels:
laboratory rats [1] = experiment: Effects on sleep and righting time, oral administration (Example 5); format: in vivo; settings: 10 mM/kg body weight; for TIME SLEPT (mins) AVG 1: average based only on the animals which slept
Method: The effects on sleep and- righting time of the oral and in traperitoneal administration of the prior art compound hydroxybutyrate sodium salt (GHB) and 4-acetoxybutanoate (EAB) according to the invention were determined, using groups of labotatory rats.
In a first experiment, GHB was administered at high dosage level (25 mM/Kg or 3 g/kg body weight) orally to three animals. […] The most likely reason is that oral GHB is poorly absorbed.
In a second experiment each of GHB and EAB was given to separate groups of twelve and eleven animals respectively, by oral administration at the same, lower dosage level of 10 mM/kg body weight.

rats = experiment: Effects on sleep and righting time, intraperitoneal administration (Example 6); settings: 5 mM/kg body weight; for TIME SLEPT (mins) AVG 1: average based only on the animals which slept; for TIME SLEPT (mins): individual animals, asterisk = animal could be placed on its back for the time indicated, DNS = did not sleep
[2] = Toxicity in animal models; settings: rat, in vivo; laboratory rats; read-out: dose required before a toxic level is reached
Method: In tests conducted in animal models, the compound ethyl 4-acetoxybutanoate has evidenced extremely low levels of toxicity. In tests conducted with laboratory rats as reported below, doses as high as 3000 mg per kilogram body weight are required, before a toxic level is reached.

laboratory rats [3] = experiment: Drug-induced sleep tracked by electroencephalograph (Example 4); format: in vivo; settings: for induced sleep (duration): 500 mg per kilogram, EEG
Method: The preferred compound according to the invention was administered to labotatory rats, and the sleep of the animals induced by the drug was tracked by means of an electroencephalograph.
Compound ethyl 4-acetoxybutanoate, administered by mouth at a dosage of 250 mg per kilogram body weight induced sleep for 1 hour 28 minutes. At a dosage of 500 mg per kilogram administered in one case by mouth and in another case intraperitoneally, sleep was induced for 4 hours.
The administration to a similar laboratory rat, intraperitoneally, of a dosage of 500 mg per kilogram body weight of GHB induced sleep for only 1 hour 59 minutes, by contrast.

[4] = individual animals, asterisk = animal could be placed on its back for the time indicated, DNS = did not sleep
[5] = 250 or 500 mg per kilogram, by mouth or intraperitoneally
[6] = average of all the rats, whether they slept or not

## CCOC(=O)CCCOC(C)=O [EAB, ethyl 4-acetoxybutanoate]
Laboratory rats [1]
  TIME SLEPT (mins) RANGE: 103.9 to 331.6 min
  animals put to sleep: put all rats to sleep
  animals that could be placed on their backs: four of eleven could be placed on their backs for more than five hours
  ill effects upon waking: none of the animals exhibited any ill effects
  muscle relaxation during sleep: loose and flaccid
  sign of toxicity: No sign of toxicity was observed
  TIME SLEPT (mins) AVG 1: 170.57 min
Laboratory rats [1]; [4]
  TIME SLEPT: 103.90 min and 120.30 min and 106.10 min and 125.75 min and 143.45 min and 120.00 min and 175.80 min
  TIME SLEPT (mins): 331.60* mins and 311.50* mins and 317.65* mins and 300.20* mins
rats
  TIME SLEPT (mins) RANGE: 39.30 to 259.00 min
  ill effects upon waking: none of them showed any ill effects
  muscle relaxation during sleep: exhibited a high degree of muscle relaxation
  TIME SLEPT (mins) AVG 1: 126.89 min
  TIME SLEPT (mins): 51.70* mins and 39.30* mins and 199.65* mins and 141.70* mins and 70.00* mins and 259.00* mins
[2]
  NOAEL: ≥ 3000 mg/kg
Laboratory rats [3]; [5]
  ill effects upon waking: none of the animals exhibited ill effects
  muscle relaxation during sleep: the limbs and other body joints were quite flaccid
Laboratory rats [3]; by mouth
  induced sleep (duration): 4 h
Laboratory rats [3]; intraperitoneally
  induced sleep (duration): 4 h

## O=C(O)CCCO [GHB, hydroxybutyrate sodium salt, reference compound]
Laboratory rats [1]
  TIME SLEPT (mins) RANGE: 0 to 74.7 min
  TIME SLEPT (mins) AVG 1: 65.76 min
Laboratory rats [1]; [6]
  TIME SLEPT (mins) AVG 2: 27.40 min
Laboratory rats [1]; individual animals, asterisk = animal could be placed on its back for the time indicated, DNS = did not sleep, sodium salt
  TIME SLEPT: 72.80 min and 64.70 min and 60.80 min and 55.80 min and 74.70 min
rats
  TIME SLEPT (mins) RANGE: 0 to 87.35 min
  TIME SLEPT (mins) AVG 1: 72.04 min
rats; [6]
  TIME SLEPT (mins) AVG 2: 48.03 min
rats; sodium salt
  TIME SLEPT (mins): 70.20* mins and 55.40* mins and 75.20* mins and 87.35* mins
